Measured values taken from US20240342177A1, “METHODS OF TREATING BRAIN CANCER” (priority 2021, published 2024).

Legend:
P008480 (Ependymoma) = assay: In vitro efficacy, dose response in ependymoma culture
Protocol: (§1) The composition used in the methods of the present disclosure was tested at a 5-FU to FA (Leucovorin) ratio of 15:1 (termed ‘Deflexifol’), and compared to 5-FU as a single agent (‘5-FU’); FA (Leucovorin) as a single agent (‘Leucovorin’); or a combination of 5-FU and FA (Leucovorin) (‘5-FU+Leucovorin’).
(§2) Screening was conducted in a 96-well format, with N=4 curves, using: • three different DMG cell lines: P002306, DIPG-7 and RA055 • one ependymoma culture and • one set of healthy astrocytes (control model system).

DIPG-7 (DMG) = assay: In vitro efficacy, dose response in DMG neurospheres DIPG-7; settings: Homo sapiens
Protocol: (§3) Assessment of in vitro activity of the composition used in the methods of the present disclosure was undertaken in patient-derived Diffuse Midline Glioma (DMG) neurospheres.
(§4) In particular, activity of the composition against human DMG cells was compared to that of 5-FU, a combination of 5-FU and FA, or a media control.
as §1
(§5) The tested concentrations were selected with reference to the clinical maximum tolerated plasma concentration of 5-FU (530 μM), as detailed in Table 5.
as §2

RA055 (DMG) = assay: In vitro efficacy, dose response in DMG neurospheres RA055
Protocol: as §3, §4, §1, §5, §2

[1] = system: U-87-MG human glioblastoma cell line; assay: U-87-MG cell proliferation (Incucyte confluency); format: cell-based; settings: 72 hours with drug, 5-FU concentration, read-out: IC50, inhibiting cell proliferation
Protocol: U-87-MG cells are maintained in DMEM (high glucose)+10% FCS
• 96-well 2D format (triplicate wells per drug concentration). • Cells seeded at 10,000 cells/well>24 hours incubation. • Drugs added 24 hours later and cells incubated a further 72 hours. • Cells imaged every 6 hours using Incucyte ZOOM for cell proliferation (confluency measurement) and evidence of cell death.

P002306 (DMG) = assay: In vitro efficacy, dose response in DMG neurospheres P002306
Protocol: as §3, §4, §1, §5, §2

[2] = cited from earlier work
P000302 (Healthy cells) = assay: In vitro dose response in healthy astrocytes (control model system)
Protocol: as §1, §2

**Q.** With `O=c1[nH]cc(F)c(=O)[nH]1` [5-FU, 5-fluoro-2,4 (1H,3H)-pyrimidinedione] as the compound, how does the IC50 (P008480 (Ependymoma); Homo sapiens) read?
**A.** > 500 µM

**Q.** And the “AUC (dose response)” value (P008480 (Ependymoma); P008480 (Ependymoma))?
**A.** AUC: 373.2

**Q.** What about the IC50 (DIPG-7 (DMG)) of the same compound?
**A.** ~22.3 µM

**Q.** What about the IC50 (RA055 (DMG); Homo sapiens) of the same compound?
**A.** ~200 µM

**Q.** What about the “AUC (dose response)” value (RA055 (DMG); RA055 (DMG)) of the same compound?
**A.** AUC: 332.6

**Q.** What about the IC50 [1] of the same compound?
**A.** 120 µM

**Q.** And the IC50 (P002306 (DMG); Homo sapiens)?
**A.** ~1.9 µM

**Q.** And the “AUC (dose response)” value (P002306 (DMG); P002306 (DMG))?
**A.** AUC: 171.4

**Q.** And the “clinical maximum tolerated plasma concentration” value ([2]; human, in vivo)?
**A.** 530 µM

**Q.** And the “human tolerability of i.v.b. administration” value ([2]; i.v.b.)?
**A.** approximately 500 mg/mg^2

**Q.** What about the IC50 (P000302 (Healthy cells); Homo sapiens, Astrocyte) of the same compound?
**A.** ~500 µM

**Q.** What about the “AUC (dose response)” value (P000302 (Healthy cells); P000302 (Healthy cells)) of the same compound?
**A.** AUC: 294.3
